For five compounds, T/C results are on record in PubChem BioAssay AID250 (DTP/NCI, 2004).

“And” between values parts separate entries of the source, which are not always exact repeats. Identical values can stand only once. Inconclusive results and toxic doses are left out.

The test system of the assay is BDF1 mice, L1210 leukemia sc, survival T/C. Description: NCI In Vivo Anticancer Drug Screen. Data for tumor model L1210 Leukemia (subcutaneous) in B6D2F1 (BDF1) mice. The following applies: endpoint: median survival time, higher = longer survival. The gist of the method: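 Mice carrying transplanted tumors received test compounds, and survival or tumor size was measured. Values are the treated-group measurement (T) divided by that of the vehicle-treated control group (C).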

Setting [1] is: dose: 108.0 mg/kg/injection, schedule: Q01DX Z (sc), vehicle: methylcellulose (MC).
Where [2] appears, read: dose: 180.0 mg/kg/injection, schedule: Q01DX Z (sc), vehicle: methylcellulose (MC).
The mark [3] stands for this setting: dose: 300.0 mg/kg/injection, schedule: Q01DX Z (sc), vehicle: methylcellulose (MC).

`OCC1OC(n2cnc3c(=S)nc[nH]c32)C(O)C1O` (stereo not given): the T/C is 110 % of control (dose: 38.9 mg/kg/injection, schedule: Q01DX Z (sc), vehicle: methylcellulose (MC)); 150 % of control (dose: 50.0 mg/kg/injection, schedule: Q03HX024 (ip), vehicle: other); 155 % of control (dose: 64.8 mg/kg/injection, schedule: Q01DX Z (sc), vehicle: methylcellulose (MC)); 155 % of control (dose: 100.0 mg/kg/injection, schedule: Q03HX024 (ip), vehicle: other); 155 % of control (dose: 100.0 mg/kg/injection, schedule: Q03HX024 (sc), vehicle: other); 160 % of control under setting [1]. The T/C is 150 % of control under setting [2]; 161 % of control (dose: 200.0 mg/kg/injection, schedule: Q03HX024 (ip), vehicle: other); 155 % of control (dose: 200.0 mg/kg/injection, schedule: Q03HX024 (sc), vehicle: other); 150 % of control under setting [3]; 155 % of control (dose: 400.0 mg/kg/injection, schedule: Q01DX009 (ip), vehicle: other); 150 % of control (dose: 400.0 mg/kg/injection, schedule: Q01DX009 (sc), vehicle: other). In addition, the T/C is, setting by setting: (dose: 400.0 mg/kg/injection, schedule: Q03HX024 (ip), vehicle: other) 155 % of control; (dose: 400.0 mg/kg/injection, schedule: Q03HX024 (sc), vehicle: other) 105 % of control; (dose: 800.0 mg/kg/injection, schedule: Q01DX009 (ip), vehicle: other) 155 % of control; (dose: 800.0 mg/kg/injection, schedule: Q01DX009 (sc), vehicle: other) 161 % of control; (dose: 1600.0 mg/kg/injection, schedule: Q01DX009 (ip), vehicle: other) 122 % of control; (dose: 1600.0 mg/kg/injection, schedule: Q01DX009 (sc), vehicle: other) 155 % of control. In addition, the T/C is 111 % of control (dose: 3200.0 mg/kg/injection, schedule: Q01DX009 (sc), vehicle: other) and 150 % of control (dose: 3200.0 mg/kg/injection, schedule: Q04DX003 (sc), vehicle: other).
On to `CN(Cc1cnc2nc(N)nc(N)c2n1)c1c(Cl)cc(C(=O)NC(CCC(=O)O)C(=O)O)cc1Br` (stereo not given), for which the T/C is 266 % of control (dose: 1.8 mg/kg/injection, schedule: Q## X Z (sc), vehicle: other); 288 % of control (dose: 3.0 mg/kg/injection, schedule: Q## X Z (sc), vehicle: other); 111 % of control (dose: 4.9 mg/kg/injection, schedule: Q01DX Z (ip), vehicle: other); 100 % of control (dose: 5.0 mg/kg/injection, schedule: Q01DX Z (sc), vehicle: other); 422 % of control (dose: 5.0 mg/kg/injection, schedule: Q## X Z (sc), vehicle: other); 122 % of control (dose: 8.3 mg/kg/injection, schedule: Q01DX Z (ip), vehicle: other). For the same compound, the T/C runs as follows: (dose: 8.4 mg/kg/injection, schedule: Q01DX Z (sc), vehicle: other) 111 % of control; (dose: 8.4 mg/kg/injection, schedule: Q## X Z (sc), vehicle: other) 100 % of control; (dose: 14.0 mg/kg/injection, schedule: Q01DX Z (sc), vehicle: other) 244 % of control; (dose: 14.1 mg/kg/injection, schedule: Q01DX Z (ip), vehicle: other) 122 % of control; (dose: 23.0 mg/kg/injection, schedule: Q01DX Z (sc), vehicle: other) 283 % of control and 300 % of control; (dose: 23.4 mg/kg/injection, schedule: Q01DX Z (ip), vehicle: other) 283 % of control. The T/C was 305 % of control (dose: 38.9 mg/kg/injection, schedule: Q01DX Z (ip), vehicle: other); 322 % of control and 338 % of control (dose: 39.0 mg/kg/injection, schedule: Q01DX Z (sc), vehicle: other); 104 % of control (dose: 39.0 mg/kg/injection, schedule: Q## X Z (sc), vehicle: other); 300 % of control (dose: 64.8 mg/kg/injection, schedule: Q01DX Z (ip), vehicle: other); 316 % of control and 333 % of control (dose: 65.0 mg/kg/injection, schedule: Q01DX Z (sc), vehicle: other); 104 % of control (dose: 65.0 mg/kg/injection, schedule: Q## X Z (sc), vehicle: other). Also, the T/C is 244 % of control (dose: 107.0 mg/kg/injection, schedule: Q01DX Z (ip), vehicle: other); 211 % of control and 233 % of control (dose: 108.0 mg/kg/injection, schedule: Q01DX Z (sc), vehicle: other); 104 % of control (dose: 108.0 mg/kg/injection, schedule: Q## X Z (sc), vehicle: other); 177 % of control (dose: 179.0 mg/kg/injection, schedule: Q01DX Z (ip), vehicle: other); 166 % of control (dose: 180.0 mg/kg/injection, schedule: Q01DX Z (sc), vehicle: other); 109 % of control (dose: 180.0 mg/kg/injection, schedule: Q## X Z (sc), vehicle: other). In addition, the T/C reads like this: (dose: 300.0 mg/kg/injection, schedule: Q## X Z (sc), vehicle: other) 114 % of control; (dose: 500.0 mg/kg/injection, schedule: Q## X Z (sc), vehicle: other) 114 % of control.
Regarding `NC(Cc1c[nH]c2ccc(N(CCCl)CCCl)cc12)C(=O)O` (stereo not given), the T/C is, setting by setting: (dose: 0.65 mg/kg/injection, schedule: Q01DX Z (sc), vehicle: methylcellulose (MC)) 105 % of control; (dose: 1.08 mg/kg/injection, schedule: Q01DX Z (sc), vehicle: methylcellulose (MC)) 111 % of control; (dose: 1.8 mg/kg/injection, schedule: Q01DX Z (sc), vehicle: methylcellulose (MC)) 123 % of control; (dose: 8.4 mg/kg/injection, schedule: Q01DX Z (sc), vehicle: methylcellulose (MC)) 117 % of control.
With `OCC1OC(n2cnc3cc(Cl)c(Cl)cc32)C(O)C1O` (stereo not given), the T/C was 95 % of control (dose: 23.0 mg/kg/injection, schedule: Q01DX Z (sc), vehicle: methylcellulose (MC)); 95 % of control (dose: 23.0 mg/kg/injection, schedule: Q01DX Z (sc), vehicle: water); 95 % of control (dose: 39.0 mg/kg/injection, schedule: Q01DX Z (sc), vehicle: methylcellulose (MC)); 105 % of control (dose: 39.0 mg/kg/injection, schedule: Q01DX Z (sc), vehicle: water); 100 % of control (dose: 65.0 mg/kg/injection, schedule: Q01DX Z (sc), vehicle: methylcellulose (MC)); 100 % of control (dose: 65.0 mg/kg/injection, schedule: Q01DX Z (sc), vehicle: water). Also, the T/C by setting is: under setting [1], 90 % of control and 100 % of control; (dose: 108.0 mg/kg/injection, schedule: Q01DX Z (sc), vehicle: water) 95 % of control; under setting [2], 100 % of control and 105 % of control; (dose: 180.0 mg/kg/injection, schedule: Q01DX Z (sc), vehicle: water) 100 % of control; under setting [3], 105 % of control; (dose: 500.0 mg/kg/injection, schedule: Q01DX Z (sc), vehicle: methylcellulose (MC)) 100 % of control.
For the compound `CCN(CC)CCNC(=O)N(Cc1ccccc1)c1ccccc1`, the T/C (dose: 22.0 mg/kg/injection, schedule: Q01DX Z (sc), vehicle: methylcellulose (MC)) was 100 % of control; the T/C (dose: 37.0 mg/kg/injection, schedule: Q01DX Z (sc), vehicle: methylcellulose (MC)) is 100 % of control; the T/C (dose: 62.0 mg/kg/injection, schedule: Q01DX Z (sc), vehicle: methylcellulose (MC)) is 100 % of control; the T/C (dose: 104.0 mg/kg/injection, schedule: Q01DX Z (sc), vehicle: methylcellulose (MC)) was 100 % of control; the T/C (dose: 173.0 mg/kg/injection, schedule: Q01DX Z (sc), vehicle: methylcellulose (MC)) is 100 % of control; the T/C (dose: 288.0 mg/kg/injection, schedule: Q01DX Z (sc), vehicle: methylcellulose (MC)) is 100 % of control. Besides, the T/C is, setting by setting: (dose: 480.0 mg/kg/injection, schedule: Q01DX Z (sc), vehicle: methylcellulose (MC)) 100 % of control; (dose: 800.0 mg/kg/injection, schedule: Q01DX Z (sc), vehicle: methylcellulose (MC)) 100 % of control.
